Literature values in paper PMC8146789, “20-Hydroxyecdysone, from Plant Extracts to Clinical Use: Therapeutic Potential for the Treatment of Neuromuscular, Cardio-Metabolic and Respiratory Diseases” (Biomedicines, 2021).
Like-named read-outs stand apart in the source and are kept apart here.

Key:
[1] = tested on: C2C12 myotubes; set-up: method as in PMID 24974955; conditions: E2 1 nM; ref [54]; cited from earlier work
[2] = tested on: myostatin gene expression in C2C12 cells; conditions: cited from earlier work
[3] = tested on: ERα; set-up: method as in PMID 24974955; conditions: ref [54]; cited from earlier work
[4] = tested on: Erβ; set-up: method as in PMID 24974955; conditions: ref [54]; cited from earlier work
[5] = tested on: rats; set-up: method as in ref [121] = [121]; 121. Ogawa S. Nishimoto N. Matsuda H. Pharmacology of ecdysones un vertebrates Invertebrate Endocrinology and Hormonal Heterophylly Burdette W.J. Springer Berlin, Germany 1974 341 344; conditions: ref [121]; cited from earlier work
[6] = tested on: mice; conditions: ref Ogawa et al. [121], cited from earlier work
[7] = tested on: rats; conditions: long-term feeding 0.2–2 g/kg/day, ref [121]; cited from earlier work
[8] = set-up: method as in PMID 5719028, PMID 30428419; conditions: ref [154],[155]; cited from earlier work
[9] = rat, in vivo, po; cited from earlier work
[10] = set-up: method as in PMID 3355591, PMID 2906596; conditions: mice, i.p., ref [123],[125], cited from earlier work
[11] = humans, ref [132], cited from earlier work
[12] = sheep, ingested; ref [132]; cited from earlier work

Q: For `C[C@]12CC[C@@H]3c4ccc(O)cc4CC[C@H]3[C@@H]1CC[C@@H]2O` [E2, Estradiol, reference compound], which myotube diameter [1] is on record?
A: Its myotube diameter is “enhanced myotube diameter”.

Q: And the myostatin gene expression ([2]; C2C12 cells, ref [113])?
A: Its myostatin gene expression is “inhibit myostatin gene expression in a dose-dependent manner”.

Q: What about the “activation of ERE reporter gene” value [3] of the same compound?
A: Its value is “could be activated dose dependently”.

Q: And the “activation of ERE reporter gene” value [4]?
A: The value was “could be activated dose dependently”.

Q: Which “sex hormonal activity, anti-inflammatory or anabolic effects” value [5] does the source give for `CC(CO)CC[C@@H](O)[C@](C)(O)[C@H]1CC[C@@]2(O)C3=CC(=O)[C@@H]4C[C@@H](O)[C@@H](O)C[C@]4(C)[C@H]3CC[C@]12C` (stereo partly shown) [inokosterone] here?
A: Its value is “did not have”.

Q: What about the LD50 ([6]; i.p.-injected) of the same compound?
A: The LD50 was 7800 mg/kg.

Q: What about the LD50 ([6]; ingested) of the same compound?
A: The LD50 was over 9000 mg/kg.

Q: And the subacute toxicity [7]?
A: The subacute toxicity was “no subacute toxicity was observed”.

Q: Which myostatin gene expression ([2]; C2C12 cells, ref [113]) does the source give for `C[C@]12CC[C@@H]3c4ccc(O)cc4CC[C@H]3[C@@H]1CC[C@H]2O` [17αE2, 17-epi-estradiol] here?
A: Its myostatin gene expression is “inhibit myostatin gene expression in C2C12 cells”.

Q: Which myostatin gene expression ([2]; C2C12 cells, ref [113]) does the source give for `C[C@]12CC[C@@H]3c4ccc(O)cc4C(=NOCC(=O)O)C[C@H]3[C@@H]1CC[C@@H]2O` [E2-CMO, estradiol 6-carboxymethyloxime] here?
A: The myostatin gene expression was “inhibit myostatin gene expression in C2C12 cells like E2”.

Q: Which anabolic activity [8] does the source give for `CC(=O)[C@H]1CC[C@@]2(O)C3=CC(=O)[C@@H]4C[C@@H](O)[C@@H](O)C[C@]4(C)C3CC[C@]12C` (stereo partly shown) [Post, poststerone] here?
A: The anabolic activity was “seem to retain some anabolic activity”.

Q: And the bioavailability [9]?
A: The bioavailability was “ca. 19%”.

Q: With IGF-1: insulin-like growth factor-1 as the compound, how does the myostatin gene expression ([2]; C2C12 myotubes, 6 h treatment, ref [103]) read?
A: Its myostatin gene expression is “markedly reduces myostatin gene expression”.

Q: With “Angiotensin(1-7): natural ligand for the GPCR Mas1 (DRVYIHP; Angiotensin 1-7; UniProt P01019 25-31, looked up)” as the compound, how does the myostatin gene expression ([2]; C2C12 cells, ref [113]) read?
A: Its myostatin gene expression is “partially inhibits myostatin gene expression”.

Q: Which anabolic activity [8] does the source give for `C[C@]12C[C@H](O)[C@H](O)C[C@H]1C(=O)C=C1[C@@H]2CC[C@]2(C)C(=O)CC[C@@]12O` [rubrosterone] here?
A: The anabolic activity was “seem to retain some anabolic activity”.

Q: Which “time to full excretion of radioactivity” value ([10]; undiluted radiolabelled ecdysone) does the source give for `C[C@H]([C@H](O)CCC(C)(C)O)[C@H]1CC[C@@]2(O)C3=CC(=O)[C@@H]4C[C@@H](O)[C@@H](O)C[C@]4(C)[C@H]3CC[C@]12C` [E, ecdysone] here?
A: The value was at most 24 h.

Q: And the “time until essentially all radioactivity is located in the intestine” value [10]?
A: The value was 45 to 60 min.

Q: What about the “time of plasma titre maximum” value ([11]; ingested) of the same compound?
A: The value was “ca. 30 min”.

Q: And the “effective half-time of elimination from the blood” value [11]?
A: Its value is 4 h.

Q: And the “effective half-time of elimination from the urine” value [11]?
A: Its value is 3.1 h.

Q: And the “time of plasma titre maximum” value [12]?
A: The value was “ca. 30 min”.

Q: With D-Pro^7-Ang(1-7) as the compound, how does the “effect on the inhibition of myostatin gene expression by 20E” value ([2]; C2C12 cells, ref [113]) read?
A: The value was “effective at preventing the inhibition brought about by 20E”.

Q: What about the “effect on the inhibition of myostatin gene expression by Ang(1-7)” value ([2]; C2C12 cells, ref [113]) of the same compound?
A: The value was “abolished”.

Q: Which “effect on the inhibition of myostatin gene expression by 20E” value ([2]; C2C12 cells, ref [113]) does the source give for D-Ala^7-Ang(1-7) here?
A: The value was “effective at preventing the inhibition brought about by 20E”.

Q: What about the “effect on the inhibition of myostatin gene expression by Ang(1-7)” value ([2]; C2C12 cells, ref [113]) of the same compound?
A: Its value is “abolished”.
